{
  "source": "paper PMC4021529",
  "about": "(British Journal of Cancer, 2014)",
  "test": "Adverse events",
  "format": "in vivo, human",
  "settings": "for drug-related anaemia, incidence / drug-related leukopenia, incidence / drug-related neutropenia, incidence / drug-related thrombocytopenia, incidence: all doses",
  "key": {"[1]": {"settings": "schedule A, 350 mg (n=3), irrespective of relatedness"}, "[2]": {"settings": "schedule A, total (n=32), irrespective of relatedness"}, "[3]": {"settings": "schedule B, 50 mg (n=4), irrespective of relatedness"}, "[4]": {"settings": "schedule B, 100 mg (n=4), irrespective of relatedness"}, "[5]": {"settings": "schedule B, 150 mg (n=16), irrespective of relatedness"}, "[6]": {"settings": "schedule B, 200 mg (n=3), irrespective of relatedness"}, "[7]": {"settings": "schedule B, total (n=27), irrespective of relatedness"}},
  "data": [
    {"smiles": "CC[C@@H]1C(=O)N(C)c2cnc(Nc3ccc(C(=O)N[C@H]4CC[C@H](N5CCN(CC6CC6)CC5)CC4)cc3OC)nc2N1C(C)C", "note": "[volasertib]", "values": [
      {"measurement": "Thrombocytopenia grade 4, number of patients", "setting": "schedule A, 300 mg (n=17), irrespective of relatedness", "value": 2, "unit": "n"},
      {"measurement": "Anaemia grade 3, number of patients", "setting": "[1]", "value": 2, "unit": "n"},
      {"measurement": "Anaemia grade 4, number of patients", "setting": "[1]", "value": 1, "unit": "n"},
      {"measurement": "Febrile neutropenia grade 3, number of patients", "setting": "[1]", "value": 1, "unit": "n"},
      {"measurement": "Leukopenia grade 3, number of patients", "setting": "[1]", "value": 2, "unit": "n"},
      {"measurement": "Neutropenia grade 4, number of patients", "setting": "[1]", "value": 3, "unit": "n"},
      {"measurement": "Thrombocytopenia grade 3, number of patients", "setting": "[1]", "value": 1, "unit": "n"},
      {"measurement": "Thrombocytopenia grade 4, number of patients", "setting": "[1]", "value": 2, "unit": "n"},
      {"measurement": "drug-related anaemia, incidence", "setting": "schedule A", "value": 40.6, "unit": "%"},
      {"measurement": "drug-related leukopenia, incidence", "setting": "schedule A", "value": 56.3, "unit": "%"},
      {"measurement": "drug-related neutropenia, incidence", "setting": "schedule A", "value": 56.3, "unit": "%"},
      {"measurement": "drug-related thrombocytopenia, incidence", "setting": "schedule A", "value": 62.5, "unit": "%"},
      {"measurement": "Abdominal pain grade 3, number of patients", "setting": "[2]", "value": "3 (9.4) n (%)"},
      {"measurement": "Anaemia grade 3, number of patients", "setting": "[2]", "value": "8 (25.0) n (%)"},
      {"measurement": "Anaemia grade 4, number of patients", "setting": "[2]", "value": "4 (12.5) n (%)"},
      {"measurement": "Fatigue grade 3, number of patients", "setting": "[2]", "value": "2 (6.3) n (%)"},
      {"measurement": "Febrile neutropenia grade 3, number of patients", "setting": "[2]", "value": "2 (6.3) n (%)"},
      {"measurement": "Febrile neutropenia grade 4, number of patients", "setting": "[2]", "value": "1 (3.1) n (%)"},
      {"measurement": "Hypokalaemia grade 3, number of patients", "setting": "[2]", "value": "1 (3.1) n (%)"},
      {"measurement": "Ileus grade 3, number of patients", "setting": "[2]", "value": "1 (3.1) n (%)"},
      {"measurement": "Infection grade 3, number of patients", "setting": "[2]", "value": "1 (3.1) n (%)"},
      {"measurement": "Leukopenia grade 3, number of patients", "setting": "[2]", "value": "9 (28.1) n (%)"},
      {"measurement": "Leukopenia grade 4, number of patients", "setting": "[2]", "value": "1 (3.1) n (%)"},
      {"measurement": "Neutropenia grade 3, number of patients", "setting": "[2]", "value": "6 (18.8) n (%)"},
      {"measurement": "Neutropenia grade 4, number of patients", "setting": "[2]", "value": "10 (31.3) n (%)"},
      {"measurement": "Pain grade 3, number of patients", "setting": "[2]", "value": "1 (3.1) n (%)"},
      {"measurement": "Thrombocytopenia grade 3, number of patients", "setting": "[2]", "value": "10 (31.3) n (%)"},
      {"measurement": "Thrombocytopenia grade 4, number of patients", "setting": "[2]", "value": "5 (15.6) n (%)"},
      {"measurement": "Upper GI haemorrhage grade 3, number of patients", "setting": "[2]", "value": "1 (3.1) n (%)"},
      {"measurement": "Anaemia grade 3, number of patients", "setting": "[3]", "value": 1, "unit": "n"},
      {"measurement": "Infection grade 3, number of patients", "setting": "[3]", "value": 1, "unit": "n"},
      {"measurement": "Dyspnoea grade 3, number of patients", "setting": "[4]", "value": 1, "unit": "n"},
      {"measurement": "Hypokalaemia grade 3, number of patients", "setting": "[4]", "value": 1, "unit": "n"},
      {"measurement": "Abdominal pain grade 3, number of patients", "setting": "[5]", "value": 2, "unit": "n"},
      {"measurement": "Anaemia grade 3, number of patients", "setting": "[5]", "value": 1, "unit": "n"},
      {"measurement": "Anaemia grade 4, number of patients", "setting": "[5]", "value": 2, "unit": "n"},
      {"measurement": "Dizziness grade 3, number of patients", "setting": "[5]", "value": 1, "unit": "n"},
      {"measurement": "Fatigue grade 3, number of patients", "setting": "[5]", "value": 1, "unit": "n"},
      {"measurement": "Leukopenia grade 3, number of patients", "setting": "[5]", "value": 1, "unit": "n"},
      {"measurement": "Neutropenia grade 3, number of patients", "setting": "[5]", "value": 2, "unit": "n"},
      {"measurement": "Neutropenia grade 4, number of patients", "setting": "[5]", "value": 1, "unit": "n"},
      {"measurement": "Pain grade 3, number of patients", "setting": "[5]", "value": 2, "unit": "n"},
      {"measurement": "Rash grade 3, number of patients", "setting": "[5]", "value": 1, "unit": "n"},
      {"measurement": "Upper GI haemorrhage grade 3, number of patients", "setting": "[5]", "value": 1, "unit": "n"},
      {"measurement": "Vomiting grade 3, number of patients", "setting": "[5]", "value": 1, "unit": "n"},
      {"measurement": "Abdominal distension grade 3, number of patients", "setting": "[6]", "value": 1, "unit": "n"},
      {"measurement": "Anaemia grade 3, number of patients", "setting": "[6]", "value": 2, "unit": "n"},
      {"measurement": "Decreased appetite grade 3, number of patients", "setting": "[6]", "value": 1, "unit": "n"},
      {"measurement": "Fatigue grade 3, number of patients", "setting": "[6]", "value": 1, "unit": "n"},
      {"measurement": "Febrile neutropenia grade 3, number of patients", "setting": "[6]", "value": 1, "unit": "n"},
      {"measurement": "Hypokalaemia grade 3, number of patients", "setting": "[6]", "value": 1, "unit": "n"},
      {"measurement": "Ileus grade 3, number of patients", "setting": "[6]", "value": 2, "unit": "n"},
      {"measurement": "Infection grade 3, number of patients", "setting": "[6]", "value": 1, "unit": "n"},
      {"measurement": "Leukopenia grade 4, number of patients", "setting": "[6]", "value": 1, "unit": "n"},
      {"measurement": "Neutropenia grade 4, number of patients", "setting": "[6]", "value": 2, "unit": "n"},
      {"measurement": "Thrombocytopenia grade 3, number of patients", "setting": "[6]", "value": 2, "unit": "n"},
      {"measurement": "Upper GI haemorrhage grade 3, number of patients", "setting": "[6]", "value": 1, "unit": "n"},
      {"measurement": "drug-related anaemia, incidence", "setting": "schedule B", "value": 18.5, "unit": "%"},
      {"measurement": "drug-related leukopenia, incidence", "setting": "schedule B", "value": 33.3, "unit": "%"},
      {"measurement": "drug-related neutropenia, incidence", "setting": "schedule B", "value": 33.3, "unit": "%"},
      {"measurement": "drug-related thrombocytopenia, incidence", "setting": "schedule B", "value": 14.8, "unit": "%"},
      {"measurement": "Abdominal distension grade 3, number of patients", "setting": "[7]", "value": "1 (3.7) n (%)"},
      {"measurement": "Abdominal pain grade 3, number of patients", "setting": "[7]", "value": "2 (7.4) n (%)"},
      {"measurement": "Anaemia grade 3, number of patients", "setting": "[7]", "value": "4 (14.8) n (%)"},
      {"measurement": "Anaemia grade 4, number of patients", "setting": "[7]", "value": "2 (7.4) n (%)"},
      {"measurement": "Decreased appetite grade 3, number of patients", "setting": "[7]", "value": "1 (3.7) n (%)"},
      {"measurement": "Dizziness grade 3, number of patients", "setting": "[7]", "value": "1 (3.7) n (%)"},
      {"measurement": "Dyspnoea grade 3, number of patients", "setting": "[7]", "value": "1 (3.7) n (%)"},
      {"measurement": "Fatigue grade 3, number of patients", "setting": "[7]", "value": "2 (7.4) n (%)"},
      {"measurement": "Febrile neutropenia grade 3, number of patients", "setting": "[7]", "value": "1 (3.7) n (%)"},
      {"measurement": "Hypokalaemia grade 3, number of patients", "setting": "[7]", "value": "2 (7.4) n (%)"},
      {"measurement": "Ileus grade 3, number of patients", "setting": "[7]", "value": "2 (7.4) n (%)"},
      {"measurement": "Infection grade 3, number of patients", "setting": "[7]", "value": "2 (7.4) n (%)"},
      {"measurement": "Leukopenia grade 3, number of patients", "setting": "[7]", "value": "1 (3.7) n (%)"},
      {"measurement": "Leukopenia grade 4, number of patients", "setting": "[7]", "value": "1 (3.7) n (%)"},
      {"measurement": "Neutropenia grade 3, number of patients", "setting": "[7]", "value": "2 (7.4) n (%)"},
      {"measurement": "Neutropenia grade 4, number of patients", "setting": "[7]", "value": "3 (11.1) n (%)"},
      {"measurement": "Pain grade 3, number of patients", "setting": "[7]", "value": "2 (7.4) n (%)"},
      {"measurement": "Rash grade 3, number of patients", "setting": "[7]", "value": "1 (3.7) n (%)"},
      {"measurement": "Thrombocytopenia grade 3, number of patients", "setting": "[7]", "value": "2 (7.4) n (%)"},
      {"measurement": "Upper GI haemorrhage grade 3, number of patients", "setting": "[7]", "value": "2 (7.4) n (%)"},
      {"measurement": "Vomiting grade 3, number of patients", "setting": "[7]", "value": "1 (3.7) n (%)"}
    ]}
  ]
}
